In US20100168038A1, “USE OF COMPOUNDS IN COMBINATION WITH GAMMA-IRRADIATION FOR THE TREATMENT OF CANCER” (priority 2006, published 2010):
Values joined by “and” are separate entries in the source; they are usually repeats but may differ in a detail not shown here. Equal values may be shown once. Residues, ends and D or L forms follow the SMILES beside them.

Tested on: Lewis Lung Carcinoma (LLC) cells
Assay: Tumor growth of Lewis Lung Carcinoma (LLC) in mice, compound with or without gamma-irradiation
Assay type: in vivo, mouse
Conditions: for tumor volume / tumor volume, mean: LLC; for tumor volume: single mouse; for tumor volume, mean: group mean
Source text: Tumor Growth Experiments. Tumor cells were washed in PBS and resuspended in a volume of 200 micro-l per inoculate. The cells were then inoculated into the right flank at 10^6 per mouse and growth of the tumor was monitored by measurement two times per week. The initiation of anti-tumor treatment of the mice was to some extent individualized according to when tumor growth started in each mouse. The mice were irradiated with 4 Gy prior to tumor inoculation in order to inhibit anti-tumor immune responses. The tumor volume was calculated as the mean volume in mice with tumors growth, according to (a1×a2×a3)/2 (the numbers ai denote tumor diameter, width and depth). The time of first palpation varied between different mice, although the general pattern of growth was similar in virtually all of the mice. In most diagrams a log-scale is used to better visualize the therapeutic effects against small tumors, i.e. the presence of complete rejections. For inhibition of TPPII in vivo we made intraperitoneal injections with 13.8 mg per kg of body weight (14 micro-l of a 50 mM solution/mouse) of the Subtilisin inhibitor Z-Gly-Leu-Ala-OH (Z-GLA-OH, Bachem, Weil am Rhein, Germany) twice per week, diluted into 200 micro-l PBS. All gamma-irradiations were full body exposures.
Table 2 contains in vivo data, showing tumor volume in mm^3, in groups of 4 mice with LLC (Lewis Lung Carcinoma). Mice were sacrificed if the tumor volume exceeded 1000 mm^3. Some mice were administered with the compounds alone; others were additionally administered with irradiation. Mice were given the compounds, and in some cases also gamma irradition (400 Rad), at days 7, 10, 14, 18 and 21.

[1] = compound + gamma irradiation (400 Rad), day 10
[2] = compound + gamma irradiation (400 Rad), day 14
[3] = compound + gamma irradiation (400 Rad), day 18
[4] = compound + gamma irradiation (400 Rad), day 21

With `CC(C)C[C@H](NC(=O)CNC(=O)OCc1ccccc1)C(=O)N[C@@H](C)C(=O)O` [Z-GLA-OH, Z-Gly-Leu-Ala-OH] (HELM PEPTIDE1{[O=C(OCc1ccccc1)[*:2]].G.L.A}$$$$V2.0) the tumor volume (compound + gamma irradiation (400 Rad) at days 7, 10, 14, 18, 21, day 7) was 4.0 mm^3 and 6.0 mm^3 (2×) and 0.0 mm^3, the “tumor volume, mean” value (compound + gamma irradiation (400 Rad), day 7) was 4.00 mm^3 and the “tumor volume, mean” value [1] was 64.00 mm^3. The tumor volume [1] was 48.0 mm^3 and 128.0 mm^3 and 40.0 mm^3 (2×), the “tumor volume, mean” value [2] was 84.00 mm^3 and the tumor volume [2] was 72.0 mm^3 (2×) and 144.0 mm^3 and 48.0 mm^3. The “tumor volume, mean” value [3] was 25.38 mm^3, the tumor volume [3] was 32 mm^3 (2×) and 24 mm^3 and 13.5 mm^3 and the “tumor volume, mean” value [4] was 7.00 mm^3. The tumor volume [4] was 13.5 mm^3 (2×) and 0.5 mm^3 (2×), the “tumor volume, mean” value (compound alone, day 7) was 5.88 mm^3 and the tumor volume (compound alone, day 7 after tumor inoculation) was 4.0 mm^3 and 0.0 mm^3 and 6.0 mm^3 and 13.5 mm^3. The “tumor volume, mean” value (compound alone, day 10) was 150.25 mm^3, the tumor volume (compound alone, day 10) was 256.0 mm^3 and 192.0 mm^3 and 9.0 mm^3 and 144.0 mm^3 and the “tumor volume, mean” value (compound alone, day 14) was 748 mm^3. For the same molecule, the tumor volume (compound alone, day 14) was 660.0 mm^3 and 864.0 mm^3 and 720.0 mm^3, the “tumor volume, mean” value (compound alone, day 18) was 1300.67 mm^3 and the tumor volume (compound alone, day 18) was 864 mm^3 and 1470 mm^3 and 1568 mm^3. The tumor volume (compound alone, day 21) was 2048.0 mm^3, the “effect on LLC tumors” value (Z-GLA-OH only, in the absence of gamma-irradiation) was “no effect” and the tumor response (established LLC tumors, gamma-irradiation 4 Gy doses + Z-GLA-OH injection) was “complete regression”.
